Measured values as given in patent US11020405B2, “Method for prevention or treatment of diabetic complications” (KANGWON NATIONAL UNIVERSITY UNIVERSITY-INDUSTRY COOPERATION …, priority 2017, dated 2021).

What was measured:
VE-cadherin = assay: Analysis of adherens junction (VE-cadherin staining); format: cell-based, human; conditions: HRECs, 10 ng/mL VEGF 90 min with 20 μM midazolam, 5 μM BAPTA-AM, 1 mM NAC, 0.5 μM Trolox, 50 μM cystamine or 20 μM MDC (FIGS. 5, 6)
Procedure: (§1) Purchased from Applied Cell Biology Research Institute (Cell Systems, Kirkland, Wash.), human retinal endothelial cells (HRECs) were cultured in an M19 medium, containing 20% FBS, 3 ng/mL bFGF, 5 U/mL heparin, 100 U/mL penicillin and […], in a 2% gelatin-coated plate.
(§2) Before the following Test Examples 2 to 7, the HRECs were cultured for 6 hr in a medium containing 1% FBS and an antibiotic agent, thus preparing HRECs of Test Example 1.
The HRECs of Test Example 1 were subjected to the respective treatments below and cultured for 30 min. Here, treatment with 10 ng/mL VEGF was performed for 90 min. Thereafter, the HRECs were treated with 1 mM 5-(biotinamido)pentylamine, incubated for 1 hr, fixed with 3.7% formaldehyde, treated with 0.2% triton X-100, treated with a blocking solution containing 138 mM NaCl, 0.1% Tween 20 and 2% BSA dissolved in a 20 mM Tris (pH 7.6) buffer, incubated for 30 min, incubated with a monoclonal VE-cadherin antibody (1:200; Santa Cruz Biotechnology) for 12 hr or more (overnight), incubated with a FITC-conjugated goat anti-mouse antibody (1:200; Sigma-Aldrich), and then measured using confocal microscopy. Some (the following i), iii), iv), vi), ix)) of the results are shown in FIG. 5 and the VE-cadherin concentrations in the portions represented by the dotted lines in FIG. 5 are shown in FIG. 6. With reference to FIG. 6, 10 randomly selected cells were measured to determine the fluorescence intensity of single cells and thus quantify VE-cadherin.
VE-cadherin, which is a protein that mediates adherens junction, was analyzed to evaluate adherens junction.

[1] = system: endothelial monolayer of HRECs; assay: Analysis of cell permeability (FITC-dextran, Transwell); format: cell-based, human; conditions: HREC monolayer, 10 ng/mL VEGF 90 min with 20 μM midazolam, 5 μM BAPTA-AM, 1 mM NAC, 0.5 μM Trolox, 50 μM cystamine or 20 μM MDC; 40 kDa FITC-dextran 60 min (FIG. 7)
Procedure: The HRECs were cultured (e.g. about 5 days) until the cell confluence thereof reached an appropriate level on gelatin-coated 0.4 μm polycarbonate membranes of Transwell Permeable Supports (Costar, Corning, N.Y.), followed by the respective treatments below and culture for 30 min. Here, treatment with 10 ng/mL VEGF was performed for 90 min. Thereafter, the HRECs were treated with 1 mg/mL 40 kDa FITC-dextran (Sigma-Aldrich), incubated for 60 min, after which the amount of FITC-dextran that was diffused into the lower chamber through the endothelial monolayer of HERCs was measured using a microplate spectrofluorometer (Molecular Devices, Sunnyvale, Calif.).

[2] = system: human retinal endothelial cells (HRECs); assay: Analysis of intracellular Ca^2+ (Fluo4-AM, confocal microscopy); format: cell-based; conditions: 10 ng/mL VEGF with 5 μM BAPTA-AM, 1 mM NAC, 0.5 μM Trolox, 50 μM cystamine or 20 μM MDC, 30 min (FIG. 2B)
Procedure: as §1, §2
With reference to FIG. 2A, the HRECs of Test Example 1 were subjected to the respective treatments below, stained with 2 μM Fluo4-AM at 37° C. for 30 min and then measured at time intervals of 10 sec using confocal microscopy (FV-300, Olympus, Tokyo, Japan).
With reference to FIG. 2B, the HRECs of Test Example 1 were subjected to the respective treatments below, cultured for 30 min, stained with 2 μM Fluo4-AM at 37° C. for 30 min and then measured at time intervals of 10 sec using confocal microscopy.

β-catenin = assay: Analysis of adherens junction (β-catenin staining); format: cell-based, human; conditions: HRECs, 10 ng/mL VEGF 90 min with 20 μM midazolam, 5 μM BAPTA-AM, 1 mM NAC, 0.5 μM Trolox, 50 μM cystamine or 20 μM MDC (FIGS. 8, 9)
Procedure: as §1, §2
The HRECs of Test Example 1 were subjected to the respective treatments below and cultured for 30 min. Here, treatment with 10 ng/mL VEGF was performed for 90 min. Thereafter, the HRECs were treated with 1 mM 5-(biotinamido)pentylamine, incubated for 1 hr, fixed with 3.7% formaldehyde, treated with 0.2% triton X-100, treated with a blocking solution containing 138 mM NaCl, 0.1% Tween 20 and 2% BSA dissolved in a 20 mM Tris (pH 7.6) buffer, incubated for 30 min, incubated with a monoclonal β-catenin antibody (1:200; Santa Cruz Biotechnology) for 12 hr or more, incubated with a FITC-conjugated goat anti-mouse antibody, and measured using confocal microscopy. Some (the following i), ii), iii), iv)) of the results are shown in FIG. 8, and the β-catenin concentrations in the portions represented by the dotted lines in FIG. 8 are shown in FIG. 9. With reference to FIG. 9, 10 randomly selected cells were measured to determine the fluorescence intensity of single cells and thus quantify β-catenin.
β-catenin, which is a protein that mediates adherens junction like VE-cadherin, was analyzed to evaluate adherens junction.

[3] = system: human retinal endothelial cells (HRECs); assay: Analysis of ROS of cells (H2DCFDA fluorescence); format: cell-based; conditions: 10 ng/mL VEGF with 20 μM midazolam, 5 μM BAPTA-AM, 1 mM NAC, 0.5 μM Trolox, 50 μM cystamine or 20 μM MDC (FIG. 3B)
Procedure: as §1, §2
With reference to FIG. 3A, the HRECs of Test Example 1 were treated with 0 to 20 μM midazolam, cultured for 30 min, treated with 10 ng/mL VEGF and 10 μM H2DCFDA (Molecular Probes, Eugene, Oreg.), stained for 10 min in a phenol-red-free low-serum medium, and then measured using confocal microscopy to thus determine the fluorescence intensity of single cells.
With reference to FIG. 3B, the HRECs of Test Example 1 were subjected to the respective treatments below and cultured for 30 min. Upon treatment with 10 ng/mL VEGF, treatment with 10 μM H2DCFDA was performed therewith, or alternatively, treatment with 10 μM H2DCFDA was performed alone, followed by staining for 10 min in a phenol-red-free low-serum medium and then measurement via confocal microscopy to thus determine the fluorescence intensity of single cells.

TGase = assay: Identification of receptor of midazolam through TGase activity analysis; format: cell-based, human; conditions: HRECs, 0-50 μM flumazenil or 0-30 μM PK11195 1 hr, then 20 μM midazolam 30 min, then 10 ng/ml VEGF (FIG. 11B)
Procedure: With reference to FIG. 11A, the HRECs of Test Example 1 were subjected to the respective treatments below, cultured for 2 hr, treated with 1 mM 5-(biotinamido)pentylamine, incubated for 1 hr, fixed with 3.7% formaldehyde, treated with 0.2% triton X-100, treated with a blocking solution containing 138 mM NaCl, 0.1% Tween 20 and 2% BSA dissolved in a 20 mM Tris (pH 7.6) buffer, incubated for 30 min, incubated with FITC-conjugated streptavidin (1:200, v/v) for 1 hr, and then measured using confocal microscopy to thus determine the fluorescence intensity of single cells.
(§3) As will be described below, flumazenil was used as a GABAA receptor antagonist and PK11195 was used as a TSOP receptor antagonist.
With reference to FIG. 11B, the HRECs of Test Example 1 were treated with 0 μM, 0.01 μM, 0.1 μM, 1 μM, 10 μM, 20 μM, and 50 μM flumazenil and 0 μM, 0.01 μM, 0.1 μM, 1 μM, 3 μM, 10 μM, and 30 μM PK11195, cultured for 1 hr, treated with 20 μM midazolam, cultured for 30 min, treated with 10 ng/ml VEGF, incubated for 10 min, treated with 1 mM 5-(biotinamido)pentylamine, incubated for 1 hr, fixed with 3.7% formaldehyde, treated with 0.2% triton X-100, treated with a blocking solution containing 138 mM NaCl, 0.1% Tween 20 and 2% BSA dissolved in a 20 mM Tris (pH 7.6) buffer, incubated for 30 min, incubated with FITC-conjugated streptavidin (1:200, v/v) for 1 hr, and then measured using confocal microscopy to thus determine the fluorescence intensity of single cells.

[4] = system: human retinal endothelial cells (HRECs); assay: Identification of receptor of midazolam through ROS concentration analysis; format: cell-based; conditions: 0-50 μM flumazenil or 0-30 μM PK11195 1 hr, then 20 μM midazolam 30 min, then 10 ng/ml VEGF (FIG. 10B)
Procedure: With reference to FIG. 10A, the HRECs of Test Example 1 were subjected to the respective treatments below, cultured for 10 min, treated with 10 μM H2DCFDA, stained for 10 min in a phenol-red-free low-serum medium, and measured using confocal microscopy to thus determine the fluorescence intensity of single cells.
as §3
With reference to FIG. 10B, the HRECs of Test Example 1 were treated with 0 μM, 0.01 μM, 0.1 μM, 1 μM, 10 μM, 20 μM, and 50 μM flumazenil and 0 μM, 0.01 μM, 0.1 μM, 1 μM, 3 μM, 10 μM, and 30 μM PK11195, cultured for 1 hr, treated with 20 μM midazolam, cultured for 30 min, treated with 10 ng/ml VEGF, incubated for 10 min, treated with 10 μM H2DCFDA, stained for 10 min in a phenol-red-free low-serum medium, and then measured using confocal microscopy to thus determine the fluorescence intensity of single cells.

Structure (SMILES) | VE-cadherin concentration / adherens junction disruption due to VEGF (VE-cadherin) | FITC-dextran diffused into lower chamber (cell permeability) / adherens junction disruption due to VEGF [1] | changes in intracellular Ca^2+ (VEGF-induced) compared to control [2] | β-catenin concentration / adherens junction disruption due to VEGF (β-catenin) | ROS concentration (VEGF-induced) compared to control [3] | TGase activity in midazolam- and VEGF-treated cells after receptor antagonist (TGase) | ROS concentration in midazolam- and VEGF-treated cells after receptor antagonist [4]
Cc1c(C)c2c(c(C)c1O)CCC(C)(C(=O)O)O2 (stereo not drawn) [Trolox] | the effect of preventing the adherens junction disruption was also observed | the effect of preventing the adherens junction disruption was also observed | intracellular Ca^2+ elevation was caused | the effect of preventing the adherens junction disruption was also observed | no significant ROS concentration increase was observed |  | 
CC(=O)OCOC(=O)CN(CC(=O)OCOC(C)=O)c1ccccc1OCCOc1ccccc1N(CC(=O)OCOC(C)=O)CC(=O)OCOC(C)=O [BAPTA-AM] | the effect of preventing the adherens junction disruption was also observed | the effect of preventing the adherens junction disruption was also observed | no significant changes in intracellular Ca^2+ | the effect of preventing the adherens junction disruption was also observed | no significant ROS concentration increase was observed |  | 
CN(C)c1cccc2c(S(=O)(=O)NCCCCCN)cccc12 [MDC] | the effect of preventing the adherens junction disruption was also observed | the effect of preventing the adherens junction disruption was also observed | intracellular Ca^2+ elevation was caused | the effect of preventing the adherens junction disruption was also observed | ROS concentration was increased |  | 
NCCSSCCN [cystamine] | the effect of preventing the adherens junction disruption was also observed | the effect of preventing the adherens junction disruption was also observed | intracellular Ca^2+ elevation was caused | the effect of preventing the adherens junction disruption was also observed | ROS concentration was increased |  | 
CCC(C)N(C)C(=O)c1cc2ccccc2c(-c2ccccc2Cl)n1 (stereo not drawn) [PK11195] |  |  |  |  |  | no increase in TGase activity, regardless of the PK11195 concentration | no increase in ROS concentration, regardless of the PK11195 concentration
CC(=O)N[C@@H](CS)C(=O)O [NAC] | the effect of preventing the adherens junction disruption was also observed | the effect of preventing the adherens junction disruption was also observed | intracellular Ca^2+ elevation was caused | the effect of preventing the adherens junction disruption was also observed | no significant ROS concentration increase was observed |  | 
